25 compounds from patent publication US8288424B2, “Substituted tetrahydroimidazopyridine compounds and the use thereof in the treatment of pain and other conditions” (Gruenenthal GmbH, priority 2008, dated 2012) can be followed below.

For one test, the target named is T1, KCNQ2/3 channels (Homo sapiens, UniProt O43525+O43526).
T1 construct: expressed in transfected cells; host or cells: CHO-K1
The test can be described thus: Fluorescence assay using a voltage-sensitive dye. In kind it is cell-based. As to conditions: 10 μmol test substance; CHO-K1 cells expressing KCNQ2/3 channels; agonistic activity; read-out: % Stimulation [10 μmol] Average. The protocol: Fluorescence Assay Using a Voltage-Sensitive Dye
Human CHO-K1 cells expressing KCNQ2/3 channels are cultivated adherently at 37° C., 5% CO2 and 95% humidity in cell culture bottles (e.g. 80 cm^2 TC flasks, Nunc) with MEM Alpha Medium (1×, liquid, Invitrogen, #22571), 10% foetal calf serum (FCS) (Invitrogen, #10270-106, heat-inactivated) and the necessary selection antibiotics. Before being spread out for the measurements, the cells are washed with a 1×DPBS buffer without Ca^2+/Mg^2+ (e.g. Invitrogen, #14190-094) and detached from the bottom of the culture vessel by means of Accutase (PAA Laboratories, #L11-007) (incubation with Accutase for 15 min at 37° C.). The cell count then present is determined using a CASY™ cell counter (TCC model, Schärfe System) in order subsequently to apply 20,000 cells/well/100 μl of the described nutrient medium to 96-well measuring plates of the Corning™ CellBIND™ type (flat clear-bottom black polystyrene microplates, #3340). Incubation is then carried out for one hour at room temperature, without gassing or adjusting the humidity, followed by incubation for 24 hours at 37° C., 5% CO2 and 95% humidity.
The voltage-sensitive fluorescent dye from the Membrane Potential Assay Kit (Red bulk format part R8123 for FLIPR, Molecular Devices™) is prepared by dissolving the contents of a vessel of Membrane Potential Assay Kit Red Component A in 200 ml of extracellular buffer (ES buffer, 120 mM NaCl, 1 mM KCl, 10 mM HEPES, 2 mM CaCl2, 2 mM MgCl2, 10 mM glucose; pH 7.4). After removal of the nutrient medium, the cells are washed with 200 μl of ES buffer, then covered with a layer of 100 μl of the dye solution prepared above and incubated for 45 min at room temperature with exclusion of light.
The fluorescence measurements are carried out with a BMG Labtech FLUOstar™ or BMG Labtech POLARstar™ instrument (525 nm excitation, 560 nm emission, bottom-read mode). After incubation of the dye, 50 μl of the substances to be tested in the desired concentrations, or 50 μl of ES buffer for control purposes, are introduced into separate cavities of the measuring plate and incubated for 30 min at room temperature whilst being shielded from light. The fluorescence intensity of the dye is then measured for 5 min and the fluorescence value F1 of each well is thus determined at a given, constant time. 15 μl of a […] KCl solution ([…]) are then added to each well. The change in fluorescence is subsequently measured until all relevant measured values have been obtained (mainly 5-30 min). At a given time after KCl application, a fluorescence value F2 is determined, in this case at the time of the fluorescence peak.
For calculation, the fluorescence intensity F2 is compared with the fluorescence intensity F1, and the agonistic activity of the target compound on the potassium channel is determined therefrom. F2 and F1 are calculated as follows:
[formula] In order to determine whether a substance has an agonistic activity,
[formula] for example, can be compared with
[formula] of control cells.
[formula] is determined by adding to the reaction batch only the buffer solution instead of the substance to be tested, determining the value F1K of the fluorescence intensity, adding the potassium ions as described above and measuring a value F2K of the fluorescence intensity. Then F2K and F1K are calculated as follows:
[formula] A substance has an agonistic activity on the potassium channel when
[formula] is greater than
[formula] Independently of the comparison of
[formula] it is also possible to conclude that a target compound has an agonistic activity if an increase in
[formula] is to be observed as the dosage of the target compound increases. Calculations of EC50 and IC50 values are carried out with the aid of Prism 4 software (GraphPad Software™).
On to `CCC(C)NC(=O)c1cn2c(n1)CCC(c1ccc(Oc3ccccc3)cc1)C2` (stereo not shown) [Compound 18, N-sec-Butyl-6-(4-phenoxyphenyl)-5,6,7,8-tetrahydroimidazo[1,2-a]pyridine-2-carboxamide], for which the activation at 10 µM was determined as 18.6%.

In the case of `O=C(c1cn2c(n1)CCC(c1ccccc1)C2)N1CCC(Cc2ccccc2)CC1` (stereo not shown) [Compound 1, (4-Benzylpiperidin-1-yl)(6-phenyl-5,6,7,8-tetrahydroimidazo[1,2-a]pyridin-2-yl)methanone], the activation at 10 µM worked out at 16.2%.

Turning to `COc1ccc(F)cc1C1CCc2nc(C(=O)N3CCC(Cc4ccccc4)CC3)cn2C1` (stereo not shown) [Compound 8, (4-Benzylpiperidin-1-yl)(6-(5-fluoro-2-methoxyphenyl)-5,6,7,8-tetrahydroimidazo[1,2-a]pyridin-2-yl)methanone], the activation at 10 µM came out at 29.1%.

As for `COc1ccc(C2CCc3nc(C(=O)N4CCC(Cc5ccccc5)CC4)cn3C2)cc1` (stereo not shown) [Compound 76, (4-Benzylpiperidin-1-yl)(6-(4-methoxyphenyl)-5,6,7,8-tetrahydroimidazo[1,2-a]pyridin-2-yl)methanone], the activation at 10 µM is 65.1%.

As for `Cc1cccc(C2CCc3nc(C(=O)N4CCCC4)cn3C2)c1` (stereo not shown) [Compound 29, Pyrrolidin-1-yl(6-m-tolyl-5,6,7,8-tetrahydroimidazo[1,2-a]pyridin-2-yl)methanone], the activation at 10 µM was determined as 26.2%.

In the case of `Cc1cc(C)cc(C(C)NC(=O)c2cn3c(n2)CCC(c2ccc(F)c(C)c2)C3)c1` (stereo not shown) [Compound 78, N-(1-(3,5-Dimethylphenyl)ethyl)-6-(4-fluoro-3-methylphenyl)-5,6,7,8-tetrahydroimidazo[1,2-a]pyridine-2-carboxamide], the activation at 10 µM came out at 29.7%.

Take `O=C(NCc1ccccc1)c1cn2c(n1)CCC(c1cc(C(F)(F)F)cc(C(F)(F)F)c1)C2` (stereo not shown) [Compound 43, N-Benzyl-6-(3,5-bis(trifluoromethyl)phenyl)-5,6,7,8-tetrahydroimidazo[1,2-a]pyridine-2-carboxamide]: the activation at 10 µM amounted to 16.3%.

On to `CCc1ccc(C2CCc3nc(C(=O)N4CCCC4)cn3C2)cc1` (stereo not shown) [Compound 37, (6-(4-Ethylphenyl)-5,6,7,8-tetrahydroimidazo[1,2-a]pyridin-2-yl)(pyrrolidin-1-yl)methanone], for which the activation at 10 µM was determined as 15.5%.

With `O=C(c1cn2c(n1)CCC(c1ccccc1)C2)N(CCc1ccccc1)Cc1ccccc1` (stereo not shown) [Compound 2, N-Benzyl-N-phenethyl-6-phenyl-5,6,7,8-tetrahydroimidazo[1,2-a]pyridine-2-carboxamide], the activation at 10 µM was determined as 20%.

Consider `Cc1cccc(C2CCc3nc(C(=O)N4CCC(Cc5ccccc5)CC4)cn3C2)c1` (stereo not shown) [Compound 70, (4-Benzylpiperidin-1-yl)(6-m-tolyl-5,6,7,8-tetrahydroimidazo[1,2-a]pyridin-2-yl)methanone], for which the activation at 10 µM worked out at 123%.

As to `COc1cccc(C2CCc3nc(C(=O)N4CCN(c5cccc(C(F)(F)F)c5)CC4)cn3C2)c1` (stereo not shown) [Compound 71, (6-(3-Methoxyphenyl)-5,6,7,8-tetrahydroimidazo[1,2-a]pyridin-2-yl)(4-(3-(trifluoromethyl)phenyl)piperazin-1-yl)methanone], the activation at 10 µM amounted to 115%.

Regarding `Cc1cccc(N2CCN(C(=O)c3cn4c(n3)CCC(c3ccc(F)c(C)c3)C4)CC2)c1` (stereo not shown) [Compound 65, (6-(4-Fluoro-3-methylphenyl)-5,6,7,8-tetrahydroimidazo[1,2-a]pyridin-2-yl)(4-(3-methylphenyl)piperazin-1-yl)methanone], the activation at 10 µM was determined as 132%.

Take `O=C(c1cn2c(n1)CCC(c1ccc(F)c(F)c1)C2)N1CCN(c2cccc(C(F)(F)F)c2)CC1` (stereo not shown) [Compound 79, (6-(3,4-Difluorophenyl)-5,6,7,8-tetrahydroimidazo[1,2-a]pyridin-2-yl)(4-(3-(trifluoromethyl)phenyl)piperazin-1-yl)methanone]: the activation at 10 µM amounted to 125%.

As for `CC1(C)CC2CC(C)(CN2C(=O)c2cn3c(n2)CCC(c2ccccc2)C3)C1` (stereo not shown) [Compound 3, (6-Phenyl-5,6,7,8-tetrahydroimidazo[1,2-a]pyridin-2-yl)(1,3,3-trimethyl-6-azabicyclo[3.2.1]octan-6-yl)methanone], the activation at 10 µM turned out to be 16.7%.

For `COc1ccc(F)cc1C1CCc2nc(C(=O)N3CCN(c4cccc(C(F)(F)F)c4)CC3)cn2C1` (stereo not shown) [Compound 7, (6-(5-Fluoro-2-methoxyphenyl)-5,6,7,8-tetrahydroimidazo[1,2-a]pyridin-2-yl)(4-(3-(trifluoromethyl)phenyl)piperazin-1-yl)methanone], the activation at 10 µM came out at 30%.

Turning to `Cc1cc(C2CCc3nc(C(=O)NC(C)CCc4ccccc4)cn3C2)ccc1F` (stereo not shown) [Compound 72, 6-(4-Fluoro-3-methylphenyl)-N-(4-phenylbutan-2-yl)-5,6,7,8-tetrahydroimidazo[1,2-a]pyridine-2-carboxamide], the activation at 10 µM is 103%.

Take `COc1ccccc1N1CCN(C(=O)c2cn3c(n2)CCC(c2cc(C)c(OC)c(C)c2)C3)CC1` (stereo not shown) [Compound 10, (6-(4-Methoxy-3,5-dimethylphenyl)-5,6,7,8-tetrahydroimidazo[1,2-a]pyridin-2-yl)(4-(2-methoxyphenyl)piperazin-1-yl)methanone]: the activation at 10 µM was 15.7%.

As for `Cc1ccc(C2CCc3nc(C(=O)N4CCC(Cc5ccccc5)CC4)cn3C2)cc1` (stereo not shown) [Compound 73], the activation at 10 µM is 88.8%.

Regarding `COc1c(C)cc(C2CCc3nc(C(=O)NCc4cccc(C(F)(F)F)c4)cn3C2)cc1C` (stereo not shown) [Compound 17, 6-(4-Methoxy-3,5-dimethylphenyl)-N-(3-(trifluoromethyl)benzyl)-5,6,7,8-tetrahydroimidazo[1,2-a]pyridine-2-carboxamide], the activation at 10 µM is 18.5%.

Consider `CCCCCNC(=O)c1cn2c(n1)CCC(c1cc(C)c(OC)c(C)c1)C2` (stereo not shown) [Compound 15, 6-(4-Methoxy-3,5-dimethylphenyl)-N-pentyl-5,6,7,8-tetrahydroimidazo[1,2-a]pyridine-2-carboxamide], for which the activation at 10 µM turned out to be 16.8%.

The test is the same for the next values; noted with them: CHO-K1 cells expressing KCNQ2/3 channels; agonistic activity.
A word on the EC50: it is the concentration needed to bring the measured effect to its halfway point. Lower therefore signals a more potent agent. Consider `Cc1cc(C2CCc3nc(C(=O)N4CCN(c5cccc(C(F)(F)F)c5)CC4)cn3C2)ccc1F` (stereo not shown) [Compound 58, (6-(4-Fluoro-3-methylphenyl)-5,6,7,8-tetrahydroimidazo[1,2-a]pyridin-2-yl)(4-(3-(trifluoromethyl)phenyl)piperazin-1-yl)methanone], for which the EC50 amounted to 4.46 µM.

In the case of `CC1CCN(C(=O)c2cn3c(n2)CCC(c2ccc(Oc4ccccc4)cc2)C3)CC1` (stereo not shown) [Compound 21, (4-Methylpiperidin-1-yl)(6-(4-phenoxyphenyl)-5,6,7,8-tetrahydroimidazo[1,2-a]pyridin-2-yl)methanone], the response was half-maximal at 8.4 µM (EC50).

For the compound `COc1cccc(C2CCc3nc(C(=O)NC(C)CCc4ccccc4)cn3C2)c1` (stereo not shown) [Compound 60, 6-(3-Methoxyphenyl)-N-(4-phenylbutan-2-yl)-5,6,7,8-tetrahydroimidazo[1,2-a]pyridine-2-carboxamide], the EC50 is 6.4 µM.

`Cc1cc(C2CCc3nc(C(=O)N4CCC(Cc5ccccc5)CC4)cn3C2)ccc1F` (stereo not shown) [Compound 57, (4-Benzylpiperidin-1-yl)(6-(4-fluoro-3-methylphenyl)-5,6,7,8-tetrahydroimidazo[1,2-a]pyridin-2-yl)methanone]: the response was half-maximal at 9.71 µM (EC50).

For `COc1c(C)cc(C2CCc3nc(C(=O)N4CCN(c5ccccc5F)CC4)cn3C2)cc1C` (stereo not shown) [Compound 6, (4-(2-Fluorophenyl)piperazin-1-yl)(6-(4-methoxy-3,5-dimethylphenyl)-5,6,7,8-tetrahydroimidazo[1,2-a]pyridin-2-yl)methanone], a half-maximal effect (EC50) was put at 7.4 µM.
